This note sets out measurements from patent US7202269B2, “GlyT2 modulators” (Janssen Pharmaceutica N.V., priority 2003, dated 2007).

This assay deals with T1, human glycine transporter-2 (GlyT2) (Homo sapiens, UniProt Q9Y345).
T1 construct: The entire coding region of the human GlyT2 cDNA was cloned into the mammalian expression vector pClNeo; expressed in transfected cells; host or cells: Cos-7 cells (African green monkey kidney, ATCC), stably transfected, G418-selected; vector pClNeo
T1 sequence (Q9Y345 1-797): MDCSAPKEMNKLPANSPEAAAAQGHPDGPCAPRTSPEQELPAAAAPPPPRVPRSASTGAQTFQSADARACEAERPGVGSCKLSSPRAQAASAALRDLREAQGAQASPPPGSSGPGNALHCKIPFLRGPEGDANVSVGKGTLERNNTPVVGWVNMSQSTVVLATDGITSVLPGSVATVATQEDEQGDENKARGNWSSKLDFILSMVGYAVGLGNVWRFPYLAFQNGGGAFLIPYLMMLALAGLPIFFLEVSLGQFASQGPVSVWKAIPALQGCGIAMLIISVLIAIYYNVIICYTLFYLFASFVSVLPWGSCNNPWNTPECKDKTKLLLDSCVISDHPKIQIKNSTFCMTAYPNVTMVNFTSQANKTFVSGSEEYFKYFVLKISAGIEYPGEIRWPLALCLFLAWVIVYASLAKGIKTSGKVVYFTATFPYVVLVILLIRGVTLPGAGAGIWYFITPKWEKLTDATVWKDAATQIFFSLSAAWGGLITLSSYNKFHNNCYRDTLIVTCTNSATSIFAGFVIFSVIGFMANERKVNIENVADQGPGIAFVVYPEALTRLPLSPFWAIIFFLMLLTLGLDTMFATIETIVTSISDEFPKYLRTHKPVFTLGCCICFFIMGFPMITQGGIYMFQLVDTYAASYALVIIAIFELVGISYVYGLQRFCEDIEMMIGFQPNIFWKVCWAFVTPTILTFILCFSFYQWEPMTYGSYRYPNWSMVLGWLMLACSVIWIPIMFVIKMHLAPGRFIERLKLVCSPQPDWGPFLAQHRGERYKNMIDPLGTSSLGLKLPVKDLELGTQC
In words: Inhibition of [14C]-glycine uptake in COS-7 cells transfected with human GlyT2. The assay is classed as cell-based. The settings on record: 2 h at 37° C., Cos-7 cells stably transfected with human GlyT2. The protocol: GlyT2 antagonist activity of representative compounds of the invention was determined in accordance with the assay described in the Examples and by measuring the ability of compounds to inhibit the uptake of [^14C]-glycine in COS-7 cells transfected with the human glycine transporter-2 (GlyT2). The GlyT2 antagonist activities of these representative compounds are set forth hereinafter in Table 1.
Cos-7 cells (African green monkey, kidney) from American Type Culture Collection were grown in DMEM supplemented with 10% fetal bovine serum. The entire coding region of the human GlyT2 cDNA was cloned into the mammalian expression vector pClNeo, and then stably transfected into Cos-7 cells. Transfection was performed essentially as described by T. W. Lovenberg et al. (Mol. Pharmacol. 1999, 55:1101–1107): Briefly, cells were grown to 70–80% confluence, removed from the plate with trypsin, and pelleted in a clinical centrifuge. The pellet was resuspended in 400 μL complete medium and transferred to an electroporation cuvette with a 0.4 cm gap between the electrodes (Bio-Rad, 165–2088). One microgram of supercoiled GlyT2 cDNA was added to the cells, and the suspension was mixed. The voltage for the electroporation was set at 0.25 kV, and the capacitance was set at 960 μF. After electroporation, the cuvette contents were diluted to 10 mL with complete medium, and 0.5 mL, 1.0 mL, 2.0 mL and remainder (˜6.5 mL) portions were plated onto four 10-cm dishes. The cells were incubated 24 h before adding 600 μg/mL G418. Colonies that survived selection were isolated and tested for GlyT2 expression.
The day before the assay, the GlyT2 expressing cells were plated into 96-well scintillating microplates (Amersham, RPNQ 0160) at a density of approximately 20,000 cells per well. Cells were grown overnight at 37° C. in 5% CO2 and then washed once with 37° C. HEPES buffered saline (HBS: 150 mM NaCl, 20 mM HEPES, 1 mM CaCl2, 10 mM glucose, 5 mM KCl, 1 mM MgCl2; pH 7.4). Eighty microliters of 37° C. HBS was subsequently added to each well. Test solutions of GlyT2 inhibitors were prepared in HBS from DMSO stock solutions, and 5 μL of test solution was added to each test well. Total transport and non-specific background were determined by adding 5 μL HBS or 5 μL 2 M glycine, respectively, to the appropriate control wells. Plates were then left at rt for 5 min before the addition of 20 μL of 100 μM ^14C-glycine (NEN, NEC 048H) to each well for a final concentration of 20 μM. Plates were incubated for 2 h at 37° C. with 5% CO2. After 2 h the reaction mixtures were removed by aspiration, and the plates were washed once with ice-cold HBS. Plates were sealed with TopSeal (Packard, 6005185) and counted on a Packard TopCount® scintillation counter.

As a reminder, the IC50 is the concentration at which inhibition is half-maximal. Low readings indicate greater potency in that assay, high ones weaker potency in that assay. `N#C/N=C(\Nc1ccc(-c2ccccc2)cc1)N[C@@H](Cc1ccccc1)C(=O)NCCCN1CCCC1` [Example 1, (S)-2-(N′-Biphenyl-4-yl-N″-cyano-guanidino)-3-phenyl-N-(3-pyrrolidin-1-yl-propyl)-propionamide]: inhibition (Table 1, 20 μM) was half-maximal at 11 nM (IC50).

On to `O=C(Nc1ccc(-c2ccccc2)cc1)N[C@H](CCCNCCN1CCCC1)Cc1ccccc1` [Example 2, 1-[(R)-1-Benzyl-4-(2-pyrrolidin-1-yl-ethylamino)-butyl]-3-biphenyl-4-yl-urea], for which the concentration for half-maximal inhibition (IC50) (Table 2, 20 μM) worked out at 18 nM.

With `CC(C)N(CCNC(=O)[C@H](Cc1ccccc1)NC(=O)Nc1ccc(Oc2ccc(Cl)cc2)cc1)C(C)C` [Example 3, (S)-2-{3-[4-(4-Chloro-phenoxy)-phenyl]-ureido}-N-(2-diisopropylamino-ethyl)-3-phenyl-propionamide], for the setting “Table 2, 20 μM”, 18 nM corresponded to half-maximal inhibition (IC50). This lies in the double-digit nanomolar range.

`Cc1ccc([C@@H](CC(=O)NCCN2CCCC2)NC(=O)Nc2ccc(-c3ccccc3)cc2)cc1` [Example 6, (R)-3-(3-Biphenyl-4-yl-ureido)-N-(2-pyrrolidin-1-yl-ethyl)-3-p-tolyl-propionamide] registered an IC50 (Table 2, 20 μM) of 27 nM.

Regarding `N#C/N=C(\Nc1ccc(-c2ccccc2)cc1)N[C@H](CC(=O)NCCN1CCCC1)c1ccccc1` [Example 8, (R)-3-(N′-Biphenyl-4-yl-N″-cyano-guanidino)-3-phenyl-N-(2-pyrrolidin-1-yl-ethyl)-propionamide], 31 nM corresponded to half-maximal inhibition (Table 1, 20 μM) (IC50).

Where the note is “Table 3, 20 μM”, `O=C(NCCN1CCCC1)[C@H](Cc1ccccc1)NC(=S)Nc1ccc(Oc2ccc(Cl)cc2)cc1` [Example 9, (S)-2-{3-[4-(4-Chloro-phenoxy)-phenyl]-thioureido}-3-phenyl-N-(2-pyrrolidin-1-yl-ethyl)-propionamide] displayed an IC50 of 32 nM.

In turn, `O=C(/C=C/[C@H](Cc1ccccc1)NC(=O)Nc1ccc(Oc2ccc(F)cc2)cc1)NCCN1CCCC1` [Example 11, (E)-(S)-4-{3-[4-(4-Fluoro-phenoxy)-phenyl]-ureido}-5-phenyl-pent-2-enoic Acid (2-pyrrolidin-1-yl-ethyl)-amide] gave a concentration for half-maximal inhibition (IC50) (Table 2, 20 μM) of 39 nM.

For the compound `CCN(CC)CCNC(=O)/C=C/[C@H](Cc1ccccc1)NC(=O)Nc1ccc(-c2ccccc2)cc1` [Example 19, (E)-(S)-4-(3-Biphenyl-4-yl-ureido)-5-phenyl-pent-2-enoic Acid (2-diethylamino-ethyl)-amide], where the note is “Table 2, 20 μM”, it took 48 nM to reach half-maximal inhibition (IC50). The IC50 values of the last two compounds are within 1.5-fold of each other.

`CC(C)NCCNC(=O)/C=C/[C@H](Cc1ccccc1)NC(=O)Nc1ccc(-c2ccccc2)cc1` [Example 21, (E)-(S)-4-(3-Biphenyl-4-yl-ureido)-5-phenyl-pent-2-enoic Acid (2-isopropylamino-ethyl)-amide]: the half-inhibitory concentration (IC50) (Table 2, 20 μM) is 52 nM. The IC50 values of the last two compounds are within 1.5-fold of each other.

Regarding `CC(C)NCCNC(=O)CC[C@H](Cc1ccccc1)NC(=O)Nc1ccc(-c2ccccc2)cc1` [Example 26, (R)-4-(3-Biphenyl-4-yl-ureido)-5-phenyl-pentanoic Acid (2-isopropylamino-ethyl)-amide], the IC50 (Table 2, 20 μM) came out at 57 nM.

For the compound `O=C(CNc1ccc(Oc2ccc(Cl)cc2)cc1)N[C@@H](Cc1ccccc1)C(=O)NCCN1CCCC1` [Example 27, (S)-2-{2-[4-(4-Chloro-phenoxy)-phenylamino]-acetylamino}-3-phenyl-N-(2-pyrrolidin-1-yl-ethyl)-propionamide], the IC50 (Table 2, 20 μM) worked out at 58 nM.

As to `O=C(C[C@H](Cc1ccccc1)NC(=O)CNc1ccc(Oc2ccc(Cl)cc2)cc1)NCCN1CCCC1` [Example 28, (S)-3-{2-[4-(4-Chloro-phenoxy)-phenylamino]-acetylamino}-4-phenyl-N-(2-pyrrolidin-1-yl-ethyl)-butyramide], the IC50 (Table 2, 20 μM) came to 95 nM.

For `O=C(CC[C@H](Cc1ccccc1)NC(=S)Nc1ccc(-c2ccccc2)cc1)NCCN1CCCC1` [Example 31, (R)-4-(3-Biphenyl-4-yl-thioureido)-5-phenyl-pentanoic Acid (2-pyrrolidin-1-yl-ethyl)-amide], the IC50 (Table 3, 20 μM) worked out at 89 nM. This counts as double-digit nanomolar.

Under “Table 1, 20 μM”, `N#C/N=C(\Nc1ccc(-c2ccccc2)cc1)N[C@H](CCC(=O)NCCN1CCCC1)Cc1ccccc1` [Example 42, (R)-4-(N′-Biphenyl-4-yl-N″-cyano-guanidino)-5-phenyl-pentanoic Acid (2-pyrrolidin-1-yl-ethyl)-amide] gave an IC50 of 93 nM. In other words, the double-digit nanomolar range.

Compound `N#C/N=C(\Nc1ccc(-c2ccccc2)cc1)N[C@H](CC(=O)NCCN1CCCC1)Cc1ccccc1` [Example 53, (S)-3-(N′-Biphenyl-4-yl-N″-cyano-guanidino)-4-phenyl-N-(2-pyrrolidin-1-yl-ethyl)-butyramide] had an IC50 (Table 1, 20 μM) of 103 nM.

Under “Table 2, 20 μM”, `CN(C)CCN(C)C(=O)C(Cc1ccccc1)NC(=O)Nc1ccc(-c2ccccc2)cc1` (centres unmarked) [Example 61, 2-(3-Biphenyl-4-yl-ureido)-N-(2-dimethylamino-ethyl)-N-methyl-3-phenyl-propionamide] came in with an IC50 of 3500 nM.

For the setting “Table 2, 20 μM”, `CC(C)N(CCNC(=O)[C@H](Cc1ccccc1)NC(=O)Nc1ccc(-c2cccs2)cc1)C(C)C` [Example 65, (S)-N-(2-Diisopropylamino-ethyl)-3-phenyl-2-[3-(4-thiophen-2-yl-phenyl)-ureido]-propionamide] showed an IC50 of 405 nM.

Where the note is “Table 2, 20 μM”, `O=C(Nc1ccc(Oc2ccccc2)cc1)N[C@@H](Cc1cscn1)C(=O)NCCN1CCCC1` [Example 74, (S)-2-[3-(4-Phenoxy-phenyl)-ureido]-N-(2-pyrrolidin-1-yl-ethyl)-3-thiazol-4-yl-propionamide] yielded an IC50 of 1060 nM.

Where the note is “Table 2, 20 μM”, `O=C(Nc1ccc(-c2ccccc2)cc1)NC1(C(=O)NCCN2CCCC2)Cc2ccccc2C1` [Example 84, 2-(3-Biphenyl-4-yl-ureido)-indan-2-carboxylic Acid (2-pyrrolidin-1-yl-ethyl)-amide] gave an IC50 of 10000 nM.

For the setting “Table 2, 20 μM”, `O=C(Nc1ccc(S(=O)(=O)c2ccc(Cl)cc2)cc1)N[C@@H](Cc1ccccc1)C(=O)NCCN1CCCC1` [Example 85, (S)-2-{3-[4-(4-Chloro-benzenesulfonyl)-phenyl]-ureido}-3-phenyl-N-(2-pyrrolidin-1-yl-ethyl)-propionamide] registered a 50% inhibitory concentration (IC50) of 269 nM.

Compound `CCCNCCNC(=O)CC[C@H](Cc1ccccc1)NC(=O)Nc1ccc(-c2ccccc2)cc1` [Example 87, (R)-4-(3-Biphenyl-4-yl-ureido)-5-phenyl-pentanoic Acid (2-propylamino-ethyl)-amide] displayed a half-inhibitory concentration (IC50) (Table 2, 20 μM) of 76 nM.

Regarding `NCCNC(=O)[C@H](Cc1ccccc1)NC(=O)Nc1ccc(Oc2ccccc2)cc1` [Example 98, (S)-N-(2-Amino-ethyl)-2-[3-(4-phenoxy-phenyl)-ureido]-3-phenyl-propionamide], where the note is “Table 2, 20 μM”, it took 398 nM to reach half-maximal inhibition (IC50).

With `O=C(/C=C/[C@H](Cc1ccccc1)NC(=O)Nc1ccc(-c2ccccc2)cc1)NCCN1CCCC1` [Example 101, (E)-(S)-4-(3-Biphenyl-4-yl-ureido)-5-phenyl-pent-2-enoic Acid (2-pyrrolidin-1-yl-ethyl)-amide], the IC50 (Table 2, 20 μM) is 112 nM.
